Measurements from patent US20060240048A1 (priority 2002, published 2006).
pEC50: −log10 of the molar value.

Target: T1, human cannabinoid CB2 receptor (Homo sapiens, UniProt P34972)
T1 construct: expressed in transfected cells; host or cells: Saccharomyces cerevisiae strain MMY23
Assay: Cannabinoid CB2 receptor agonist activity, yeast reporter assay (FDGlu fluorescence);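 on Emax: 100% equals maximal response of reference agonist HU210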
Format: cell-based
Conditions: for Emax: read-out: efficacy value (Emax) at the cloned human cannabinoid CB2 receptor
Description: The cannabinoid CB2 receptor agonist activity of the compounds of formula (I) was determined in accordance with the following experimental method.
Yeast (Saccharomyces cerevisiae) cells expressing the human cannabinoid CB2 receptor were generated by integration of an expression cassette into the ura3 chromosomal locus of yeast strain MMY23. This cassette consisted of DNA sequence encoding the human CB2 receptor flanked by the yeast GPD promoter to the 5′ end of CB2 and a yeast transcriptional terminator sequence to the 3′ end of CB2. MMY23 expresses a yeast/mammalian chimeric G-protein alpha subunit in which the C-terminal 5 amino acids of Gpa1 are replaced with the C-terminal 5 amino acids of human Gαi3 (as described in Brown et al. (2000), Yeast 16:11-22). Cells were grown at 30° C. in liquid Synthetic Complete (SC) yeast media (Guthrie and Fink (1991), Methods in Enzymology, Vol. 194) lacking uracil, tryptophan, adenine and leucine to late logarithmic phase (approximately 6 OD600/ml).
Agonists were prepared as 10 mM stocks in DMSO. […] Agonist solutions in DMSO (1% final assay volume) were transferred into black, clear bottom, microtitre plates from NUNC (96- or 384-well). […] This mixture (50 ul per well for 384-well plates, 200 ul per well for 96-well plates) was added to agonist in the assay plates (Multidrop 384, Labsystems). After incubation at 30° C. for 24 hours, fluorescence resulting from degradation of FDGlu to fluorescein due to exoglucanase, an endogenous yeast enzyme produced during agonist-stimulated cell growth, was determined using a Spectrofluor microtitre plate reader (Tecan; excitation wavelength: 485 nm; emission wavelength: 535 nm). Fluorescence was plotted against compound concentration and iteratively curve fitted using a four parameter fit to generate a concentration effect value.
where Max[compound X] and Min[compound X] are the fitted maximum and minimum respectively from the concentration effect curve for compound X, and Max[HU210] and Min[HU210] are the fitted maximum and minimum respectively from the concentration effect curve for (6aR,10aR)-3-(1,1′-Dimethylheptyl)-6a,7,10,10a-tetrahydro-1-hydroxy-6,6-dimethyl-6H-dibenzo[b,d]pyran-9-methanol (HU210; available from Tocris). Equieffective molar ratio (EMR) values were calculated from the equation EMR=EC50 [compound X]/EC50 [HU210]
Where EC50 [compound X] is the EC50 of compound X and EC50 [HU210] is the EC50 of HU210.

T1 sequence (P34972 whole entry): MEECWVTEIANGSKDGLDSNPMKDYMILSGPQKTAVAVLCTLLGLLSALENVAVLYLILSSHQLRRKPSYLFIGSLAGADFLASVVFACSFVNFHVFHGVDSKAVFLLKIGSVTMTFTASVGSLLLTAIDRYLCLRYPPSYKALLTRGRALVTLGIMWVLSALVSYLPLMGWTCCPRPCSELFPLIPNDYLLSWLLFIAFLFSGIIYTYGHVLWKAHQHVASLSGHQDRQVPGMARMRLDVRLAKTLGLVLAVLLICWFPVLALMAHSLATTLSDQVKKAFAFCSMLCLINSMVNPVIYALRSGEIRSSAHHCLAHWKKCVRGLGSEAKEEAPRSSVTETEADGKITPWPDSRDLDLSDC

Row | Structure (SMILES) | pEC50 | Emax
1 | Cc1cc(C#N)ccc1Nc1cc(C(C)C)c(C(=O)NCC2CCCC2)cn1 [Example 93, 6-(4-Cyano-2-methyl-phenylamino)-N-cyclopentylmethyl-4-isopropyl-nicotinamide] | > 6.52 | > 50%
2 | CC(C)c1cc(Nc2ccc(C#N)c(C(F)(F)F)c2)ncc1C(=O)NCC1CCOCC1 [Example 96, 6-(4-Cyano-3-trifluoromethyl-phenylamino)-4-isopropyl-N-(tetrahydro-pyran-4-ylmethyl)-nicotinamide] | – | > 50%
3 | CC(C)c1cc(Nc2ccc(C#N)cc2F)ncc1C(=O)NCC1CCOCC1 [Example 97, 6-(4-Cyano-2-fluoro-phenylamino)-4-isopropyl-N-(tetrahydro-pyran-4-ylmethyl)-nicotinamide] | – | > 50%
4 | O=C(NC1CCC1)c1cnc(Nc2cccc(Cl)c2Cl)cc1C(F)(F)F [Example 104, 6-(2,3-Dichloro-phenylamino)-N-(cyclobutyl)-4-trifluoromethyl-nicotinamide] | > 6.52 | > 50%
5 | O=C(NCC1CCOCC1)c1cnc(Nc2ccc(Cl)cc2Cl)cc1C(F)(F)F [Example 105, 6-(2,4-Dichloro-phenylamino)-N-(tetrahydropyran-4-ylmethyl)-4-trifluoromethyl-nicotinamide] | – | > 50%
6 | O=C(NCC1CCS(=O)(=O)C1)c1cnc(Nc2cccc(Cl)c2)cc1C(F)(F)F (stereo not drawn) [Example 106, 6-(3-Chloro-phenylamino)-N-(1,1-dioxo-tetrahydrothiophen-3-ylmethyl)-4-trifluoromethyl-nicotinamide] | > 6.52 | > 50%
7 | O=C(NCC1CCCCC1)c1cnc(Nc2ccccc2)cc1C(F)(F)F [Example 107, N-Cyclohexylmethyl-6-phenylamino-4-trifluoro-methyl-nicotinamide] | > 6.52 | > 50%
8 | O=C(NCC1CCCC1)c1cnc(Nc2ccccc2)cc1C(F)(F)F [Example 108, N-Cyclopentylmethyl-6-phenylamino-4-trifluoro-methyl-nicotinamide] | > 6.52 | > 50%
9 | O=C(NCC1CCC1)c1cnc(Nc2ccccc2)cc1C(F)(F)F [Example 109, N-Cyclobutylmethyl-6-phenylamino-4-trifluoro-methyl-nicotinamide] | > 6.52 | > 50%
10 | O=C(NC1CCC1)c1cnc(Nc2cccc(Cl)c2)cc1C(F)(F)F [Example 110, N-Cyclobutyl-6-(3-chloro-phenylamino)-4-trifluoro-methyl-nicotinamide] | > 6.52 | > 50%
11 | O=C(NCC1CCOCC1)c1cnc(Nc2cccc(Cl)c2)cc1C(F)(F)F [Example 111, N-(Tetrahydropyran-4-yl-methyl)-6-(3-chlorophenyl-amino)-4-trifluoromethyl-nicotinamide] | – | > 50%
12 | O=C(NCC1CCC1)c1cnc(Nc2cccc(Cl)c2)cc1C(F)(F)F [Example 112, N-Cyclobutylmethyl-6-(3-chlorophenylamino)-4-tri-fluoromethyl-nicotinamide] | > 6.52 | > 50%
13 | CC(C)CNC(=O)c1cnc(Nc2cccc(Cl)c2)cc1C(F)(F)F [Example 113, N-Isobutyl-6-(3-chloro-phenylamino)-4-trifluoro-methyl-nicotinainide] | > 6.52 | > 50%
14 | O=C(NCC1CCCC1)c1cnc(Nc2cccc(Cl)c2)cc1C(F)(F)F [Example 114, N-Cyclopentylmethyl-6-(3-chlorophenylamino)-4-tri-fluoromethyl-nicotinamide] | > 6.52 | > 50%
15 | O=C(NCC1CC1)c1cnc(Nc2cccc(Cl)c2)cc1C(F)(F)F [Example 115, N-Cyclopropylmethyl-6-(3-chlorophenylamino)-4-tri-fluoromethyl-nicotinamide] | > 6.52 | > 50%
16 | O=C(NCC1CCCCC1)c1cnc(Nc2cccc(Br)c2)cc1C(F)(F)F [Example 116, N-Cyclohexylmethyl-6-(3-bromophenylamino)-4-tri-fluoromethyl-nicotinamide] | > 6.52 | > 50%
17 | O=C(NCC1CCCCCC1)c1cnc(Nc2cccc(Br)c2)cc1C(F)(F)F [Example 117, N-Cycloheptylmethyl-6-(3-bromophenylamino)-4-tri-fluoromethyl-nicotinamide] | > 6.52 | > 50%
18 | O=C(NCC1CCOCC1)c1cnc(Nc2cccc(Br)c2)cc1C(F)(F)F [Example 118, N-(Tetrahydropyran-4-yl-methyl)-6-(3-bromophenyl-amino)-4-trifluoromethyl-nicotinamide] | > 6.52 | > 50%
19 | O=C(NC1CCC1)c1cnc(Nc2cccc(Br)c2)cc1C(F)(F)F [Example 119, N-Cyclobutyl-6-(3-bromo-phenylamino)-4-trifluoro-methyl-nicotinamide] | > 6.52 | > 50%
20 | O=C(NCC1CCC1)c1cnc(Nc2cccc(Br)c2)cc1C(F)(F)F [Example 120, N-Cyclobutylmethyl-6-(3-bromo-phenylamino)-4-tri-fluoromethyl-nicotinamide] | > 6.52 | > 50%
21 | O=C(NCC1CCCC1)c1cnc(Nc2cccc(Br)c2)cc1C(F)(F)F [Example 122, N-Cyclopentylmethyl-6-(3-bromo-phenylamino)-4-tri-fluoromethyl-nicotinamide] | > 6.52 | > 50%
22 | O=C(NCC1CC1)c1cnc(Nc2cccc(Br)c2)cc1C(F)(F)F [Example 123, N-Cyclopropylmethyl-6-(3-bromo-phenylamino)-4-tri-fluoromethyl-nicotinamide] | > 6.52 | > 50%
23 | O=C(NCC1CCC1)c1cnc(Nc2ccccc2F)cc1C(F)(F)F [Example 124, N-Cyclobutylmethyl-6-(2-fluoro-phenylamino)-4-tri-fluoromethyl-nicotinamide] | > 6.52 | > 50%
24 | O=C(NCC1CCCCCC1)c1cnc(Nc2cccc(F)c2)cc1C(F)(F)F [Example 125, N-Cycloheptylmethyl-6-(3-fluoro-phenylamino)-4-tri-fluoromethyl-nicotinamide] | > 6.52 | > 50%
25 | O=C(NC1CCC1)c1cnc(Nc2cccc(F)c2)cc1C(F)(F)F [Example 127, N-Cyclobutyl-6-(3-fluoro-phenylamino)-4-trifluoro-methyl-nicotinamide] | > 6.52 | > 50%
26 | O=C(NCC1CCCCC1)c1cnc(Nc2cccc(F)c2)cc1C(F)(F)F [Example 128, N-Cyclohexylmethyl-6-(3-fluoro-phenylamino)-4-tri-fluoromethyl-nicotinamide] | > 6.52 | > 50%
27 | O=C(NCC1CCC1)c1cnc(Nc2cccc(F)c2)cc1C(F)(F)F [Example 129, N-Cyclobutylmethyl-6-(3-fluoro-phenylamino)-4-tri-fluoromethyl-nicotinamide] | > 6.52 | > 50%
28 | O=C(NCC1CCCC1)c1cnc(Nc2cccc(F)c2)cc1C(F)(F)F [Example 130, N-Cyclopentylmethyl-6-(3-fluoro-phenylamino)-4-tri-fluoromethyl-nicotinamide] | > 6.52 | > 50%
29 | CC(C)CNC(=O)c1cnc(Nc2cccc(F)c2)cc1C(F)(F)F [Example 131, N-Isobutyl-6-(3-fluoro-phenylamino)-4-trifluoro-methyl-nicotinamide] | > 6.52 | > 50%
